ChEMBL document CHEMBL1201862, “PubChem BioAssay data set” (2004)
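Method: 48-hour compound exposure of cells in 96-well plates, five concentrations, linear interpolation of endpoints. The concentration for 50% growth inhibition is given as GI50.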 Active and inactive are the calls of the source. Rule as the data show it: active = GI50 up to about 1.1 µM and inactive = higher.

Assays:
Test in all cases: growth of human tumour cells (NCI), 48 h
[1] = tested on: KM12
[2] = tested on: SK-OV-3
[3] = tested on: COLO 205
[4] = tested on: K562
[5] = tested on: SNB-19
[6] = tested on: A498
[7] = tested on: MDA-MB-435
[8] = tested on: OVCAR-4
[9] = tested on: RPMI-8226
[10] = tested on: U-251
[11] = tested on: MDA-N
[12] = tested on: 786-0
[13] = tested on: MOLT-4
[14] = tested on: OVCAR-8
[15] = tested on: SF-539
[16] = tested on: SK-MEL-28
[17] = tested on: DU-145
[18] = tested on: NCI-H23
[19] = tested on: ACHN
[20] = tested on: MDA-MB-231

Measured: GI50

Cc1cn([C@H]2C[C@@H]3[C@@H](COC(CCl)N3O)O2)c(=O)[nH]c1=O (stereo partly drawn)
inactive: [1] > 100 µM | [2] > 100 µM | [3] > 100 µM | [4] > 100 µM | [5] > 100 µM | [6] > 100 µM | [7] > 100 µM | [8] > 100 µM | [9] > 100 µM | [10] > 100 µM | [11] > 100 µM | [12] > 100 µM | [13] > 100 µM | [14] > 100 µM | [15] > 100 µM | [16] > 100 µM | [17] > 100 µM

COc1ccc2nc(-c3ccc(OC(=O)N(C)C)cc3)cn2c1
inactive: [1] 86.1 µM | [2] > 100 µM | [3] 41.4 µM | [4] 39 µM | [5] > 100 µM | [6] > 100 µM | [7] > 100 µM | [8] > 100 µM | [10] > 100 µM | [18] > 100 µM | [11] > 100 µM | [12] 91.6 µM | [13] 82 µM | [14] > 100 µM | [19] > 100 µM | [16] > 100 µM | [20] > 100 µM

CC1C2(C)OC(=N)C(C#N)(C(c3cccc([N+](=O)[O-])c3)O2)C1(C#N)C#N (stereo not drawn)
inactive: [1] 44.9 µM | [2] > 100 µM | [3] 13.8 µM | [4] 14.6 µM | [5] 37.1 µM | [6] > 100 µM | [10] 21.9 µM | [18] 33.6 µM | [11] 16.5 µM | [12] 17.4 µM | [13] 36.3 µM | [14] 29.6 µM | [15] 18.9 µM | [19] 34 µM | [16] 17.7 µM | [20] 14.6 µM | [17] 28.4 µM

CC(C)NC(=O)OCc1c(COC(=O)NC(C)C)c(-c2cc[n+](COC(=O)CC(C)(C)C)cc2)n2c1CCC2
inactive: [2] > 100 µM | [3] > 100 µM | [4] > 100 µM | [5] > 100 µM | [6] > 100 µM | [8] > 100 µM | [9] > 100 µM | [10] > 100 µM | [18] > 100 µM | [11] > 100 µM | [12] > 100 µM | [13] > 100 µM | [14] > 100 µM | [15] > 100 µM | [20] > 100 µM

CCCC(=O)OC[n+]1ccc(-c2c(COC(=O)NC(C)C)c(COC(=O)NC(C)C)c3n2CCC3)cc1
inactive: [1] > 100 µM | [2] > 100 µM | [3] > 100 µM | [4] > 100 µM | [5] > 100 µM | [6] 39.7 µM | [7] > 100 µM | [8] > 100 µM | [9] > 100 µM | [10] > 100 µM | [18] > 100 µM | [12] 51.9 µM | [13] 41.5 µM | [14] > 100 µM | [15] 28.1 µM | [19] 15.4 µM | [16] > 100 µM | [20] > 100 µM | [17] 31.2 µM

O=C1CC(c2ccccc2)n2c(nc3ccccc32)N1 (stereo not drawn)
inactive: [1] > 100 µM | [2] > 100 µM | [3] > 100 µM | [4] 23.7 µM | [5] > 100 µM | [6] 45.5 µM | [7] 37.8 µM | [8] > 100 µM | [9] 27 µM | [10] 71.8 µM | [18] 64.1 µM | [11] 73.5 µM | [12] 74.8 µM | [13] 65.8 µM | [14] > 100 µM | [15] > 100 µM | [19] > 100 µM | [20] > 100 µM
